The values below are quoted from earlier work in patent US20090068287A1, “Novel topical formulations of flucytosine and uses thereof” (priority 2007, published 2009).

For data set [1], the system named is clinical yeast isolates.
Data set [2] has as its system C. glabrata. To be noted: boric acid 600 mg/day 2 to 3 weeks; flucytosine cream nightly for 14 days.
Data set [3] deals with C. parapsilosis. To be noted: 65 C. parapsilosis isolates.
Data set [4] concerns C. albicans. The settings on record: 104 patients with vulvovaginal candidiasis.
For data set [5], the system named is Candida albicans. The settings on record: 342 Candida albicans isolates.
The subject of data set [6] is C. tropicalis. The settings on record: 70 C. tropicalis isolates.
For data set [7], the system named is C. glabrata. To be noted: 68 C. glabrata isolates.
The conditions of data set [8]: human, in vivo.
In data set [9] the test system is C. tropicalis. The settings on record: 28 patients on miconazole nitrate, 13 on clotrimazole, nightly for seven nights; 3 secondarily on ketoconazole 200 mg for 14 days.

As to `C[C@@H]1[C@H](O)[C@@H](C)/C=C/C=C/C=C/C=C/C=C/C=C/C=C/[C@H](O[C@@H]2O[C@H](C)[C@@H](O)[C@H](N)[C@@H]2O)C[C@@H]2O[C@](O)(C[C@@H](O)C[C@@H](O)[C@H](O)CC[C@@H](O)C[C@@H](O)CC(=O)O[C@H]1C)C[C@H](O)[C@H]2C(=O)O` [amphotericin B], the “cross-resistance of fluconazole/itraconazole resistant C. albicans isolates” value in [1] was “no cross-resistance”.

As for `OB(O)O` [boric acid], in [2], the “clinical and mycological success / successful outcome, number of women” value is 47 of 73; the “clinical and mycological success / successful outcome, percent of women” value is listed as 64%.

On to `OC(Cn1cncn1)(Cn1cncn1)c1ccc(F)cc1F` [fluconazole], for which the figures for the isolates resistant in data set [3], in data set [6] and in data set [7] were 4.6%, 27.1% and 10.3%, respectively. For the same compound, in data set [1] (227 clinical yeast isolates), the yeast strains resistant entry is recorded as “Almost thirteen percent”. Moreover, the “resistant C. albicans isolated, share of the cases” value in data set [4] is 13.46%. In data set [5], the isolates showing resistance was 7.6%.

Take `Nc1nc(=O)[nH]cc1F` [flucytosine, 4-amino-5-fluoropyrimidin-2(1H)-one]: the “plasma level that led to bone marrow depression and hepatotoxicity” value in data set [8] is recorded as “greater than 100 mg/L”.

Regarding `CC(=O)N1CCN(c2ccc(OCC3COC(Cn4ccnc4)(c4ccc(Cl)cc4Cl)O3)cc2)CC1` (stereo not drawn) [ketoconazole], the “cross-resistance of fluconazole/itraconazole resistant C. albicans isolates” value in data set [1] is given as “decreased susceptibilities”. The isolates resistant in [6] is 2.9%. Besides, in data set [9], the patients with recurrences entry is on record as “all three”.

As for `Clc1ccc(COC(Cn2ccnc2)c2ccc(Cl)cc2Cl)c(Cl)c1` (stereo not drawn) [miconazole], the “cross-resistance of fluconazole/itraconazole resistant C. albicans isolates” value in data set [1] is listed as “decreased susceptibilities”.

Regarding `C[C@@H]1[C@H](O)[C@@H](C)/C=C/C=C/CC/C=C/C=C/C=C/C=C/C(O[C@H]2O[C@H](C)[C@@H](O)[C@H](N)[C@@H]2O)CC2O[C@](O)(CC(O)C(O)CCC(O)CC(O)CC(O)CC(=O)O[C@H]1C)CC(O)C2C(=O)O` (stereo partly drawn) [nystatin], the “cross-resistance of fluconazole/itraconazole resistant C. albicans isolates” value in data set [1] was “no cross-resistance”.
